In one series the test system is C. albicans (ATCC 14053). In kind it is cell-based, Candida albicans. The following applies: Mueller-Hinton Broth, 2 × 10^4 CFU/mL, 18 h at 37°C, visible turbidity, complete growth inhibition. As for the experimental part:
(§1) The bacterial strains E. coli (KACC 13821, ATCC 11775) and Staphylococcus aureus (KACC 10768, ATCC 25923), and the yeast strain Candida albicans (KCTC 7121, ATCC 14053) were purchased from the Korean Agricultural Culture Collection (KACC) and Korean Collection for Type Cultures (KCTC). Both bacteria and the yeast were cultivated overnight in tryptic soy broth (TSB; Difco, USA) at 200 rpm in a 37°C shaking incubator to the stationary phase. Bacteria were cultivated for 3 h in fresh TSB medium under the same condition to the log phase. The strains were stored with 15% glycerol at −70°C until use.
(§2) In addition, antimicrobial activities of the peptides were also tested by broth microdilution assays against E. coli, S. aureus, and C. albicans. Briefly, microbes were grown overnight in Mueller-Hinton Broth (MHB) to the onset of the stationary phase with shaking at 200 rpm. The cultures were diluted in fresh MHB to a final concentration of 2 × 10^4 CFU/mL. A stock solution of each peptide was prepared to a concentration of 640 μg/mL in 0.01% acetic acid, and was then serially diluted two-fold to reach a concentration of 10 μg/mL. After 90-μL aliquots of the microbial suspension were dispensed into each well of a 96-well polypropylene microtiter plate, 10 μL of the peptide solution was added. The antimicrobial activities of the peptides were assessed by measuring the visible turbidity in each well of the plate after 18 h of incubation at 37°C. Minimum inhibitory concentrations (MICs) are expressed as a specific value that caused complete growth inhibition.

The subject of another series is S. aureus (ATCC 25923). Nature of the series: Broth microdilution assay (MIC). In kind it is cell-based, Staphylococcus aureus. As to conditions: Mueller-Hinton Broth, 2 × 10^4 CFU/mL, 18 h at 37°C, visible turbidity, complete growth inhibition. As for the experimental part: as §1, §2
For orientation: In broth dilution the organism is exposed to a series of concentrations in liquid medium.

Series [1] concerns Gram-negative bacteria, Gram-positive bacteria, and yeast. Description: Radial diffusion assay, statement over all three microbes. The series is classed as cell-based. The following applies: increased in a dose-dependent manner, cleared zone after 12 h at 37°C. On the procedure:
as §1
(§3) The radial diffusion assay was performed to test the antimicrobial activities of peptides, as described previously with slight modifications. In brief, bacteria and yeast strains were grown to the mid-logarithmic phase in TSB at 37°C and then washed twice with 10 mM Tris-HCl (containing 5 mM glucose, pH 7.4). A total of 4 × 10^6 CFU was added to 10 mL of an underlay agarose gel [0.03% (w/v) TSB, 1% (w/v) agarose (Sigma, USA), and 0.02% (v/v) Tween 20 (Sigma, USA) in 10 mM Tris-HCl]. The underlay gel was poured into a 100-mm INTEGRID^TM Petri dish. After agarose solidification, 3-mm-diameter wells were punched and 5 μL of each peptide solution was added to each well. Buffer alone was used as a negative control. Plates were incubated at 37°C for 3 h to allow for diffusion of the peptides. The underlay gel was then covered with 10 mL of nutrient-rich agar overlay (6% TSB and 1% agarose in 10 mM Tris-HCl). […] This experiment was repeated at least 3 times and the same results were obtained.

In another series the test system is E. coli (ATCC 11775). Description: Broth microdilution assay (MIC). In kind it is cell-based, Escherichia coli. As to conditions: Mueller-Hinton Broth, 2 × 10^4 CFU/mL, 18 h at 37°C, visible turbidity, complete growth inhibition. On the procedure:
as §1, §2

Another series concerns E. coli. Nature of the series: Radial diffusion assay. The following applies: diameter of growth inhibition zone after 12 h; compared with melittin; repeated three times. The series is classed as cell-based, Escherichia coli. As for the experimental part:
as §1, §3

Another series concerns C. albicans. Nature of the series: Radial diffusion assay. In kind it is cell-based, Candida albicans. As to conditions: diameter of growth inhibition zone after 12 h, repeated three times. On the procedure: as §1, §3
For the next series, the system named is S. aureus. Nature of the series: Radial diffusion assay. The following applies: diameter of growth inhibition zone after 12 h; compared with melittin; repeated three times. In kind it is cell-based, Staphylococcus aureus. On the procedure: as §1, §3
For the next series, the system named is rat erythrocytes. Description: Hemolytic assay. The series is classed as cell-based. The following applies: 100 μg/mL, compared to melittin, 30 min at 37°C, A540. As for the experimental part: This experiment was approved by the Institutional Animal Care and Use Committee (IACUC) of the National Academy of Agricultural Sciences (approval number: NAAS-1114). The hemolytic activity of the peptides was determined by monitoring the release of hemoglobin from rat erythrocytes at 540 nm. For the hemolytic assay, 20 μL of each peptide solution at a predetermined concentration was added to 180 μL of a 2.5% (v/v) suspension of rat erythrocytes in phosphate-buffered saline (PBS). Melittin (Sigma, USA), a hemolytic and α-helical peptide isolated from bee venom, was used as the positive control. This mixture was incubated for 30 min at 37°C, and 600 μL of PBS was then added to each tube. After 3 min of centrifugation at 10,000 ×g, the supernatant was […], and the absorbance was measured at 540 nm. Evaluations were made from the results of at least three independent experiments, each carried out in triplicate.

Entries after “also recorded” stand apart in the source; their conditions may differ.

“ISHNHLTAASITHVKNRGKYIYMHLKFRKTNVLI [ISGCock_Contig16_2060, synthetic peptide, AMPA stretch of a predicted novel AMP from a P. americana transcript]”: the “Minimum Inhibitory Concentration (MIC)” value in the series on C. albicans (ATCC 14053), in the series with S. aureus (ATCC 25923) and in the series with E. coli (ATCC 11775) was 16 µg/mL throughout. The “Antimicrobial activity in radial diffusion assay” value in series [1] was “antimicrobial activity”.
With “ALQICTRNMIDDRLPYVADNVRPGTFIKQQRKQKQQRHHTSGTRKRMAKG [ISGCock_Contig04_0915, synthetic peptide, AMPA stretch of a predicted novel AMP from a P. americana transcript]”, the “Antimicrobial activity in E. coli (radial diffusion assay)” value in the series on E. coli was “stronger antimicrobial activity than melittin”. Further, the “Minimum Inhibitory Concentration (MIC)” value with C. albicans (ATCC 14053) was over 64 µg/mL; with S. aureus (ATCC 25923), over 64 µg/mL; in the series with E. coli (ATCC 11775), 64 µg/mL. In series [1], the “Antimicrobial activity in radial diffusion assay” value is recorded as “antimicrobial activity”. The “Antimicrobial activity against C. albicans (radial diffusion assay)” value with C. albicans is on record as “strong antimicrobial activity”.
As for “ANLLRHKVYGYCVLGPKGSSLGGIHGTWHDHHCSLIQRNPSTSTKGN [ISGCock_Contig13_3006, synthetic peptide, AMPA stretch of a predicted novel AMP from a P. americana transcript]”, the “Minimum Inhibitory Concentration (MIC)” value in the series on C. albicans (ATCC 14053) is 64 µg/mL; in the series on S. aureus (ATCC 25923), over 64 µg/mL; with E. coli (ATCC 11775) it was 64 µg/mL. Moreover, the “Antimicrobial activity in radial diffusion assay” value in series [1] is on record as “antimicrobial activity”.
Regarding “CNYISFFRKCKNSQSTMYGCHRMNKCVFSSY [ISGCock_Contig07_3736–1, synthetic peptide, first AMPA stretch of a predicted novel AMP from a P. americana transcript]”, the “Minimum Inhibitory Concentration (MIC)” value in the series on C. albicans (ATCC 14053), with S. aureus (ATCC 25923) and with E. coli (ATCC 11775) was over 64 µg/mL throughout. In addition, the “Antimicrobial activity in radial diffusion assay” value in series [1] is recorded as “antimicrobial activity”.
With “MKTFLRLYRSLINKVLHV [ISGCock_Contig05_0593, synthetic peptide, AMPA stretch of a predicted novel AMP from a P. americana transcript]”, the “Minimum Inhibitory Concentration (MIC)” value came out at 4 µg/mL in the series with C. albicans (ATCC 14053), 16 µg/mL in the series with S. aureus (ATCC 25923) and 4 µg/mL with E. coli (ATCC 11775). Besides, the “Antimicrobial activity in S. aureus (radial diffusion assay)” value (“Antimicrobial activity in S. aureus” for short) in the series on S. aureus is listed as “greater than that of melittin; also recorded: highest antibacterial effect”. In series [1], the “Antimicrobial activity in radial diffusion assay” value was “antimicrobial activity”. The “Antimicrobial activity against C. albicans (radial diffusion assay)” value with C. albicans is “strong antimicrobial activity”.
For “KRMKLNAKKLSFCDHLNSYLNLSPTLFIHNSSKQWSHWLWHNGIRI [ISGCock_Contig15_1337–2, synthetic peptide, second AMPA stretch of a predicted novel AMP from a P. americana transcript]”, the Hemolytic activity result in the series with rat erythrocytes was “relatively low compared to that of melittin”. Further, the “Antimicrobial activity in E. coli (radial diffusion assay)” value in the series on E. coli is reported as “stronger antimicrobial activity than melittin; also recorded: highest antimicrobial activity of the tested peptides”. Moreover, the “Minimum Inhibitory Concentration (MIC)” value in the series on C. albicans (ATCC 14053) was 64 µg/mL; in the series with S. aureus (ATCC 25923) it was over 64 µg/mL; in the series on E. coli (ATCC 11775) it was over 64 µg/mL. Moreover, in the series on S. aureus, the “Antimicrobial activity in S. aureus” value is on record as “greater than that of melittin”. Further, the “Antimicrobial activity in radial diffusion assay” value in series [1] is “antimicrobial activity”. Moreover, the “Antimicrobial activity against C. albicans (radial diffusion assay)” value in the series on C. albicans is “strong antimicrobial activity”.
On to “KRMKLNAKKLSFCDHLNSYLNLSPTLFIHNSSKQWSHWLWHNGIRI [ISGCock_Contig15_1337–1, synthetic peptide, first AMPA stretch of a predicted novel AMP from a P. americana transcript]”, for which the Hemolytic activity result in the series on rat erythrocytes was “relatively low compared to that of melittin”. Also, the “Minimum Inhibitory Concentration (MIC)” value with C. albicans (ATCC 14053) was 16 µg/mL; with S. aureus (ATCC 25923) it was over 64 µg/mL; with E. coli (ATCC 11775) it was over 64 µg/mL. Besides, the “Antimicrobial activity in S. aureus” value with S. aureus is “greater than that of melittin”. Also, the “Antimicrobial activity in radial diffusion assay” value in series [1] is “antimicrobial activity”. Also, the “Antimicrobial activity against C. albicans (radial diffusion assay)” value is on record as “strong antimicrobial activity” in the series on C. albicans and “highest antifungal activity of the tested peptides” in the series with C. albicans (listed as Contig15_1337–1).
In the case of “LMLCKGFLRHSYKSIHERGTKRGKLCRISRLALSSLP [ISGCock_Contig10_4736–2, synthetic peptide, second AMPA stretch of a predicted novel AMP from a P. americana transcript]”, the “Minimum Inhibitory Concentration (MIC)” value in the series on C. albicans (ATCC 14053) is 32 µg/mL; in the series on S. aureus (ATCC 25923), over 64 µg/mL; with E. coli (ATCC 11775) it was 16 µg/mL. Moreover, the “Antimicrobial activity in S. aureus” value with S. aureus is “greater than that of melittin”. In addition, the “Antimicrobial activity in radial diffusion assay” value in series [1] is reported as “antimicrobial activity”. The “Antimicrobial activity against C. albicans (radial diffusion assay)” value with C. albicans is listed as “strong antimicrobial activity”.
Turning to “RKKVWFIFHVCPKLKQRILSDTHAKNKCRLSPLLIKSTKIKNET [ISGCock_Contig16_4974, synthetic peptide, AMPA stretch of a predicted novel AMP from a P. americana transcript]”, the “Minimum Inhibitory Concentration (MIC)” value in the series on C. albicans (ATCC 14053), with S. aureus (ATCC 25923) and in the series on E. coli (ATCC 11775) was 16 µg/mL throughout. Moreover, the “Antimicrobial activity in radial diffusion assay” value in series [1] is on record as “antimicrobial activity”.
With “VVGRKHSILNCIPYLKKKKIMRLVESESIG [ISGCock_Contig12_4176, synthetic peptide, AMPA stretch of a predicted novel AMP from a P. americana transcript]”, in the series with rat erythrocytes, the Hemolytic activity entry is on record as “relatively low compared to that of melittin”. For the same sequence, the entries for the “Minimum Inhibitory Concentration (MIC)” value in the series on C. albicans (ATCC 14053), in the series on S. aureus (ATCC 25923) and in the series with E. coli (ATCC 11775) were 8 µg/mL, over 64 µg/mL and 8 µg/mL, respectively. In addition, the “Antimicrobial activity in S. aureus” value in the series on S. aureus is “greater than that of melittin”. For the same sequence, in series [1], the “Antimicrobial activity in radial diffusion assay” value is given as “antimicrobial activity”. For the same sequence, in the series on C. albicans, the “Antimicrobial activity against C. albicans (radial diffusion assay)” value was “strong antimicrobial activity”.

The values are drawn from PMC4864078, “De Novo Transcriptome Analysis and Detection of Antimicrobial Peptides of the American Cockroach Periplaneta americana (Linnaeus)” (PLoS ONE, 2016).
